{"source": "paper PMC5193077", "about": "“An Allosteric Potentiator of the Dopamine D1 Receptor Increases Locomotor Activity in Human D1 Knock-In Mice without Causing Stereotypy or Tachyphylaxis” (The Journal of Pharmacology and Experimental Therapeutics, 2017)", "key": {"[1]": {"biological_target": "β3 receptor (Homo sapiens, UniProt P13945)", "sequence (P13945 whole entry)": "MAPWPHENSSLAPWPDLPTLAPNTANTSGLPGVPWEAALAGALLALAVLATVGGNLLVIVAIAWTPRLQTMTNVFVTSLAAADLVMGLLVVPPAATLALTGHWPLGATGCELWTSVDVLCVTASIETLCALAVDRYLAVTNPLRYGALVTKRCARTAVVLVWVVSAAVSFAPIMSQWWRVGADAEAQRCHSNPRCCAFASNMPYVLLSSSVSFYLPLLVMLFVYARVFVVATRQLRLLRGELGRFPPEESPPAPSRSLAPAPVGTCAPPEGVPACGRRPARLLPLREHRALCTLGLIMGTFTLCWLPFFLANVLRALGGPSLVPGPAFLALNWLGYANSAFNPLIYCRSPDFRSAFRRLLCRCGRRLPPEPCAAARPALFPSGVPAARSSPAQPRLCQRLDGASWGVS", "experiment": "β3 cAMP assay (DiscoveRx)", "assay_type": "cell-based", "details": "potentiator, agonist and antagonist mode, up to 10 µM", "description": "(§1) The D2, β1, β2, β3, and 5HT6 cAMP assays were performed at DiscoveRx using the protocols described on their website (www.discoverx.com)."}, "[2]": {"biological_target": "T1, rat D1 receptor (Rattus norvegicus, UniProt P18901)", "T1 construct": "expressed in transfected cells", "T1 sequence (P18901 whole entry)": "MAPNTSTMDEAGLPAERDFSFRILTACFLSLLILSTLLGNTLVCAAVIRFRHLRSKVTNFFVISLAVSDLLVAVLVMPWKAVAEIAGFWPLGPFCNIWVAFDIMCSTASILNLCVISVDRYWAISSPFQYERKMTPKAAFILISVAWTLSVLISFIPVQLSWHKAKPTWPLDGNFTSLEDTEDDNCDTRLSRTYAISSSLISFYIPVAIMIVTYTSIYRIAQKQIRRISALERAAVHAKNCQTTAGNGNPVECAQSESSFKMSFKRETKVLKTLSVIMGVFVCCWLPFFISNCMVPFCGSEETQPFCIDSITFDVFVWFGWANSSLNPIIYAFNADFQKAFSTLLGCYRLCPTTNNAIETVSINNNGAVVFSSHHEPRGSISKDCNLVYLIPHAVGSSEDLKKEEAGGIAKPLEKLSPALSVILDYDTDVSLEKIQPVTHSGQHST", "experiment": "cAMP response in rD1 HEK293 cells", "assay_type": "cell-based"}, "[3]": {"biological_target": "T2, mouse D1 receptor (Mus musculus, UniProt Q61616)", "T2 construct": "expressed in transfected cells; host or cells: HEK293, transient (Fugene HD)", "T2 sequence (Q61616 whole entry)": "as the sequence (P18901 whole entry) above, with A11T, A15V, L91F, P93S, T181A, A245T, A254S, V370M, K403R, A410P counted along it", "experiment": "cAMP potentiation, transiently expressed mouse D1 receptor in HEK293 cells", "assay_type": "cell-based"}, "[4]": {"system": "wild-type C57Bl/6 mice", "experiment": "Locomotor activity (LMA) in wild-type C57Bl/6 mice", "assay_type": "in vivo, mouse"}, "[5]": {"biological_target": "T3, human D1 receptor (Homo sapiens, UniProt P21728)", "T3 sequence (P21728 whole entry)": "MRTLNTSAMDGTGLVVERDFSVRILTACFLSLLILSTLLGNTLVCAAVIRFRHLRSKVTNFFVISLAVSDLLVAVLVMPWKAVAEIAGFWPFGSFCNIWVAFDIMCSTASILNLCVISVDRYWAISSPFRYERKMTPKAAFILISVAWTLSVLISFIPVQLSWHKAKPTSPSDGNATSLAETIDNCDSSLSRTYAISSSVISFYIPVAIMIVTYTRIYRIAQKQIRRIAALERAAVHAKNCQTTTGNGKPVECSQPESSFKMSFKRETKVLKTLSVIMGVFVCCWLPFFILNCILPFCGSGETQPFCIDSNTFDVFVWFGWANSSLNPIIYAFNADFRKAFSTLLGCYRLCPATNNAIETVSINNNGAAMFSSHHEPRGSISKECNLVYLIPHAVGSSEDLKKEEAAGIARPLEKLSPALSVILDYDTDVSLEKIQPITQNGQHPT", "experiment": "D1 receptor internalization (PathHunter, DiscoveRx)"}, "[6]": {"experiment": "Free (unbound) brain concentrations of DETQ in hD1 mice", "assay_type": "in vivo, mouse", "description": "Immediately after the LMA measurements described in Fig. 8, the brains were removed, and brain homogenate concentrations were determined by liquid chromatography with tandem mass spectrometry. The unbound fraction in brain was determined by equilibrium dialysis in a mouse brain homogenate mixture after incubation of the compound for 4.5 hours ([Kalvass et al., 2007]).\nThe unbound brain concentrations were calculated from the following equation: […]"}, "[7]": {"biological_target": "T3, human D1 receptor", "experiment": "cAMP response in HEK293 cells stably expressing the human D1 receptor", "assay_type": "cell-based", "details": "for EC50: hD1 HEK293"}, "[8]": {"biological_target": "β1 receptor (Homo sapiens, UniProt P08588)", "sequence (P08588 whole entry)": "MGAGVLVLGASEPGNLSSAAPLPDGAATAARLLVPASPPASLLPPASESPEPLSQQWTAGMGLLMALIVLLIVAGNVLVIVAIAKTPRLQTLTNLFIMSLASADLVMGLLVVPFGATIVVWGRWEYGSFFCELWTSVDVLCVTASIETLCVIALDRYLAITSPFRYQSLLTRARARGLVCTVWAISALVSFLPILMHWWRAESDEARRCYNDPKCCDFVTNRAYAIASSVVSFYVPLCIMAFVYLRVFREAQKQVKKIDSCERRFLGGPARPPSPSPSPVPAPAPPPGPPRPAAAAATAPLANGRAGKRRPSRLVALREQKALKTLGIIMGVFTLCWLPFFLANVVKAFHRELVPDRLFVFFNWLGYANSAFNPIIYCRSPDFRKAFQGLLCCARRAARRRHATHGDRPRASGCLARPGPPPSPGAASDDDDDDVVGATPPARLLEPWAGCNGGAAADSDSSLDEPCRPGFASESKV", "experiment": "β1 cAMP assay (DiscoveRx)", "assay_type": "cell-based", "details": "potentiator, agonist and antagonist mode, up to 10 µM", "description": "as §1"}, "[9]": {"biological_target": "dog D1 receptor (Canis lupus familiaris, UniProt A0A8I3RQT9)", "sequence (A0A8I3RQT9 1-446)": "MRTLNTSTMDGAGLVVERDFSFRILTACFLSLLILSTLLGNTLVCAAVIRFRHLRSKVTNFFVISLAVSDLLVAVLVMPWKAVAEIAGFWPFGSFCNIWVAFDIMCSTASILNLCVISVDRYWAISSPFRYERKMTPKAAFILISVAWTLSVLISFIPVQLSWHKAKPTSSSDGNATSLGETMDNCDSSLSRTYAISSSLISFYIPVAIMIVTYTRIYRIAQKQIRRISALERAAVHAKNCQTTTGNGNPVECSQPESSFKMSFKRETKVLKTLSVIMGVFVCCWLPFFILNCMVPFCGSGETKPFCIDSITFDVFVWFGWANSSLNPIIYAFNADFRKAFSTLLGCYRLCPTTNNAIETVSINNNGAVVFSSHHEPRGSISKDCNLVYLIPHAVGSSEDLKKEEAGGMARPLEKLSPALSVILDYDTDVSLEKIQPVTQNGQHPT", "experiment": "cAMP potentiation, transiently expressed dog D1 receptor in HEK293 cells", "assay_type": "cell-based", "details": "Dog D1, transient", "description": "The human, rhesus monkey, dog, or mouse D1 receptor was cloned into the Jump-In vector system (Life Technologies, Austin, TX) and transiently transfected into HEK293 cells using Fugene HD (Promega, Madison, WI). After 2 days of growth in DMEM medium containing 10% FBS, 10 mM HEPES, and 100 µg/ml ampicillin at 37°C in 5% CO2, the cells were harvested with TrypLE Express (GIBCO), resuspended in FBS containing 8% DMSO, and stored in 1-ml aliquots (10 × 10^6 cells/ml) at −70°C. The cAMP accumulation was measured as described for hD1 except that 6000 to 10,000 cells per well were used and the EC20 concentration of dopamine used was 0.7 nM (final)."}, "[10]": {"biological_target": "T3, human D1 receptor", "experiment": "3H-SCH23390 binding to human D1 HEK293 cell membranes", "details": "1-100 nM DETQ"}, "[11]": {"system": "hD1 mice", "set-up": "method as in Bruns et al., submitted for publication", "details": "reserpine pretreatment; ref Bruns et al., submitted for publication; cited from earlier work"}, "[12]": {"system": "10 additional targets from the standard Lilly selectivity panel", "experiment": "Standard Lilly selectivity panel, additional targets"}, "[13]": {"biological_target": "T4, rhesus monkey D1 receptor (Macaca mulatta, UniProt O77680)", "T4 construct": "expressed in transfected cells; host or cells: HEK293, transient (Fugene HD)", "T4 sequence (O77680 whole entry)": "as the sequence (P21728 whole entry) above, with N311I counted along it", "experiment": "cAMP potentiation, transiently expressed rhesus monkey D1 receptor in HEK293 cells", "assay_type": "cell-based", "details": "Rhesus D1, transient"}, "[14]": {"biological_target": "T5, human D5 receptor (Homo sapiens, UniProt P21918)", "T5 construct": "host or cells: CHO", "T5 sequence (P21918 whole entry)": "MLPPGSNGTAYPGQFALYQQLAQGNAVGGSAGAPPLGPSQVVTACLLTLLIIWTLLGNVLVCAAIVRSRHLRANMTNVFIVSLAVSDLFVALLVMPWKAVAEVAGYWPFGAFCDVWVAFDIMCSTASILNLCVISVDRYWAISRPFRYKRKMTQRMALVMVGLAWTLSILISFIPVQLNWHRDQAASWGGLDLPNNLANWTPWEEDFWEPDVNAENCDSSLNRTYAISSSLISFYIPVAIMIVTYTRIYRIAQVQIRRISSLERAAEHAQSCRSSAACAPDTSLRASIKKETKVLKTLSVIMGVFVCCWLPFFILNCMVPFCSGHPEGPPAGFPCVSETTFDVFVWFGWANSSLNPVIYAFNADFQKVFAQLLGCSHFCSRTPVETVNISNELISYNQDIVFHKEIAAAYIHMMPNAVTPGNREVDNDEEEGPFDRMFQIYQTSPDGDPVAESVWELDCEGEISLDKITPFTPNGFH", "experiment": "cAMP response in hD5 CHO cells", "assay_type": "cell-based", "description": "A Chinese hamster ovary (CHO) cell line expressing the human D5 receptor was purchased from DiscoveRx (Fremont, CA) (product no. 92-1043). The hD5 assay was performed in the same way as the hD1 assay except that the EC20 concentration of dopamine was 2 nM."}, "[15]": {"biological_target": "T3, human D1 receptor", "experiment": "cAMP potentiation, transiently expressed human D1 receptor in HEK293 cells", "assay_type": "cell-based", "details": "Human D1, transient"}, "[16]": {"biological_target": "5HT2B receptor (Homo sapiens, UniProt P41595)", "sequence (P41595 whole entry)": "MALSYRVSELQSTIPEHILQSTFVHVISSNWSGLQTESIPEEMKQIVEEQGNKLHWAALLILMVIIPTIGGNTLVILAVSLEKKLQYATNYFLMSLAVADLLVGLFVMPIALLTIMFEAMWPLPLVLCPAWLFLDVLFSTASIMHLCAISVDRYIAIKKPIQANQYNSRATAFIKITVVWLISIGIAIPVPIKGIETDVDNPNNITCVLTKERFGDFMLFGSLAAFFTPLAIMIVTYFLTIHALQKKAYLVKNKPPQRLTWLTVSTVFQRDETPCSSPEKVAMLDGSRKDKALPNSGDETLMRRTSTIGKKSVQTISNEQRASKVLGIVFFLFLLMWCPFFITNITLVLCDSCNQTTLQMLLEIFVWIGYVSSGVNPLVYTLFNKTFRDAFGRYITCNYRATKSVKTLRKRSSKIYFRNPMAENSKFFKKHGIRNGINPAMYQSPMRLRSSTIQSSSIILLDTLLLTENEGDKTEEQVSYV", "experiment": "Standard Lilly selectivity panel, 5HT2B receptor"}, "[17]": {"biological_target": "5HT6 receptor (Homo sapiens, UniProt P50406)", "sequence (P50406 whole entry)": "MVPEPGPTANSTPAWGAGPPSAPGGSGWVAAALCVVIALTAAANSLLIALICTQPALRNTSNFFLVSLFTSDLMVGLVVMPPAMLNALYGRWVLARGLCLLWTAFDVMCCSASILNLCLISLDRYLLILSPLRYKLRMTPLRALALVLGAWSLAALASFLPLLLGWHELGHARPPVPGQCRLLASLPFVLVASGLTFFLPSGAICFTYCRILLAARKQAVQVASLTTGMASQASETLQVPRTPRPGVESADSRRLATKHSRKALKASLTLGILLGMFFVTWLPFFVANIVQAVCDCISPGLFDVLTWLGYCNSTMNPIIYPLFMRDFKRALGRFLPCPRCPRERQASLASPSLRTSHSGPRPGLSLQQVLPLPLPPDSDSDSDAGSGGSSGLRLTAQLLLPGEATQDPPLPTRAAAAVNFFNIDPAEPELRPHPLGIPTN", "experiment": "5HT6 cAMP assay (DiscoveRx)", "assay_type": "cell-based", "details": "potentiator, agonist and antagonist mode, up to 10 µM", "description": "as §1"}, "[18]": {"system": "hD1 mice", "experiment": "Video-tracking of horizontal motion, rearing and grooming in hD1 mice", "assay_type": "in vivo, mouse", "description": "The apparatus for the video-tracking assessment experiment included 12 custom-built video-tracking observation chambers and the HomeCageScan (CleverSys, Reston, VA) software system. The chambers, measuring (in inches) 8 width × 10 length × 8 height, consisted of two end walls, a back wall, a top, and a floor constructed of ¼-in. translucent white acrylic, and one side (front) constructed of clear acrylic. LED strip lighting was placed below the chamber for illumination. A color video camera (640 × 480, 30 frames per second) was placed in front of each chamber to record behavior from a side view. The chambers were located in large sound-attenuating chambers to reduce ambient room noise and isolate lighting. The cameras were connected in groups of four to a quad multiplexer (model NVQC-42N; Nuvico, Englewood, NJ), with each multiplexer connected to its own computer, which then recorded each session to an MPEG file.\nAt the end of the experiment the files were batch-analyzed by a computer running the CleverSys CageScan video-tracking software. This software can recognize and quantify several different behaviors, including LMA, grooming, rearing, immobility, and feeding behaviors. The current experiment examined behavior in a novel open-field environment rather than home-cage activity, which limited behaviors of interest to LMA, grooming, and rearing.\nFor HomeCageScan behavioral phenotyping, male D1 knock-in mice (8–12 weeks, 20–25 g body weight) were placed into the observation chambers for a 60-minute habituation session. […] All behavioral activity was monitored and scored by the HomeCageScan system."}, "[19]": {"details": "with EC20 dopamine, 0% = EC20 dopamine response, 100% = maximum dopamine response"}}, "note": "“And” between values parts separate entries of the source, which are not always exact repeats. Equal values may be shown once. “Also recorded” adds a separate entry of the source.", "data": [{"smiles": "C[C@H]1c2cccc(C(C)(C)O)c2C[C@H](CO)N1C(=O)Cc1c(Cl)cccc1Cl", "note": "[DETQ, 2-(2,6-dichlorophenyl)-1-((1S,3R)-3-(hydroxymethyl)-5-(2-hydroxypropan-2-yl)-1-methyl-3,4-dihydroisoquinolin-2(1H)-yl)ethan-1-one]", "values": [{"measurement": "Activity at β3 receptor", "setting": "[1]", "result": "inactive"}, {"measurement": "Loss of functional affinity/potency at rat D1 versus human D1", "setting": "[2]", "result": "~30 fold and 28 fold"}, {"measurement": "Emax", "setting": "[2]; HEK293, rat D1, read-out: Maximum response relative to that of dopamine", "result": 39.9, "unit": "%"}, {"measurement": "EC50", "setting": "[2]; rat D1, 5 nM dopamine (EC20), n = 4, read-out: EC50, cAMP potentiation", "result": "162 ± 18", "unit": "nM"}, {"measurement": "Loss of potency/affinity at mouse D1 versus human D1", "setting": "[3]", "result": "~30", "unit": "fold"}, {"measurement": "Top (%)", "setting": "[3]; Mouse D1, transient", "result": 50.0, "unit": "%"}, {"measurement": "EC50", "setting": "[3]; Mouse D1, transient, 0.7 nM dopamine", "result": 312, "unit": "nM"}, {"measurement": "LMA activity in wild-type mice", "setting": "[4]; 3–20 mg/kg orally", "result": "inactive in wild-type mice"}, {"measurement": "Increase in LMA", "setting": "[4]; wild-type C57Bl/6 mice, 30 mg/kg oral, P = 0.07, not significant", "result": 32, "unit": "%"}, {"measurement": "Pathway Preference cAMP/Internalization", "setting": "[5]; RA for cAMP divided by RA for internalization", "result": 13.1}, {"measurement": "Relative Preference DETQ/A-77636", "setting": "[5]; pathway preference of DETQ divided by that of A-77636", "result": "2.0 ± 1.4 and 1.97"}, {"measurement": "RA, Internalization", "setting": "[5]; top divided by EC50, with 407 nM dopamine", "result": 1.25}, {"measurement": "Bottom, D1 receptor internalization", "setting": "[5]; [19]", "result": 5.0, "unit": "%"}, {"measurement": "Top, D1 receptor internalization", "setting": "[5]; [19]", "result": 55.8, "unit": "%"}, {"measurement": "Free brain levels after oral dosing", "setting": "[6]; 240 mg/kg oral, immediately after LMA testing", "result": "~600", "unit": "nM"}, {"measurement": "concentration at 6 h", "setting": "[6]; hD1 knock-in, mouse, brain (unbound), 240 mg/kg oral twice daily, at 6 hours, n = 3, read-out: Unbound brain levels", "result": "19.8 ± 1.5", "unit": "nM"}, {"measurement": "concentration at 12 h", "setting": "[6]; hD1 knock-in, mouse, brain (unbound), 240 mg/kg oral twice daily, at 12 hours, n = 3, read-out: Unbound brain levels", "result": "30.8 ± 9.4", "unit": "nM"}, {"measurement": "Relative potency (potentiator mode RA divided by agonist mode RA)", "setting": "[7]", "result": "43 fold and 42.8 fold"}, {"measurement": "Maximum overall sensitization to dopamine (α times β)", "setting": "[7]; 20.8 × 1.22", "result": 25.4, "unit": "fold"}, {"measurement": "Emax", "setting": "[7]; HEK293, human D1, comparison with rat D1, read-out: Maximum response relative to that of dopamine", "result": 98.6, "unit": "%"}, {"measurement": "Rightward shift of EC50 in the absence of dopamine", "setting": "[7]; agonist vs potentiator mode", "result": 6, "unit": "fold"}, {"measurement": "α-factor (maximum leftward shift of the cAMP response to dopamine)", "setting": "[7]; allosteric Schild plot", "result": "21 fold and 20.8 fold and 20.8 ± 1.9 fold"}, {"measurement": "Kb", "setting": "[7]; dopamine curve-shift, cAMP, read-out: KB (allosteric Schild plot)", "result": 26, "unit": "nM"}, {"measurement": "EC50", "setting": "[7]; in the presence of an EC20 concentration of dopamine (12 nM), read-out: EC50, cAMP, potentiator mode", "result": "5.8 nM and 5.83 nM"}, {"measurement": "Top, cAMP, potentiator mode", "setting": "[7]; with 12 nM dopamine, % of window between EC20 dopamine and maximum dopamine response", "result": 95.2, "unit": "%"}, {"measurement": "RA, cAMP agonist mode", "setting": "[7]; without dopamine", "result": 0.38}, {"measurement": "Top, cAMP, agonist mode", "setting": "[7]; without dopamine, % of maximum response to dopamine", "result": 11.6, "unit": "%"}, {"measurement": "EC50", "setting": "[7]; without dopamine, read-out: EC50, cAMP, agonist mode", "result": 30.4, "unit": "nM"}, {"measurement": "Activity at β1 receptor", "setting": "[8]", "result": "inactive"}, {"measurement": "Top (%)", "setting": "[9]", "result": 85.2, "unit": "%"}, {"measurement": "EC50", "setting": "[9]; 0.7 nM dopamine", "result": 8.6, "unit": "nM"}, {"measurement": "Effect on affinity of dopamine to inhibit SCH23390 binding", "setting": "[10]", "result": "increased the affinity of dopamine"}, {"measurement": "Response in hD1 mice depleted of dopamine by reserpine", "setting": "[11]", "result": "did not reverse hypokinesia; also recorded: absent"}, {"measurement": "Activity at 10 additional targets of the Lilly selectivity panel", "setting": "[12]", "result": "inactive"}, {"measurement": "Top (%)", "setting": "[13]", "result": 80.0, "unit": "%"}, {"measurement": "EC50", "setting": "[13]; 0.7 nM dopamine", "result": 12, "unit": "nM"}, {"measurement": "Selectivity for the D1 receptor over D5", "setting": "[14]", "result": "> 1000", "unit": "fold"}, {"measurement": "Activity at human D5 receptor", "setting": "[14]; potentiator mode, up to 25 µM", "result": "inactive"}, {"measurement": "Top (%)", "setting": "[15]", "result": 75.6, "unit": "%"}, {"measurement": "EC50", "setting": "[15]; 0.7 nM dopamine", "result": 11.4, "unit": "nM"}, {"measurement": "Stimulation at 5HT2B receptor, potentiator mode", "setting": "[16]; 1 µM", "result": 5, "unit": "%"}, {"measurement": "inhibition at 1 µM", "setting": "[16]; 1 µM, read-out: Inhibition at 5HT2B receptor, antagonist mode", "result": 13, "unit": "%"}, {"measurement": "Stimulation at 5HT2B receptor, potentiator mode", "setting": "[16]; 10 µM", "result": 48, "unit": "%"}, {"measurement": "inhibition at 10 µM", "setting": "[16]; 10 µM, read-out: Inhibition at 5HT2B receptor, antagonist mode", "result": 56, "unit": "%"}, {"measurement": "Activity at 5HT6 receptor", "setting": "[17]", "result": "inactive"}, {"measurement": "Grooming (index of stereotyped behavior)", "setting": "[18]", "result": "only modest changes that did not reach statistical significance"}, {"measurement": "Horizontal locomotion and rearing", "setting": "[18]", "result": "this increase was maintained up to the highest dose tested"}]}]}
